The values below come from article PMC8124942, “In Vitro and In Vivo Cell Uptake of a Cell-Penetrating Peptide Conjugated with Fluorescent Dyes Having Different Chemical Properties” (Cancers, 2021).

The series in a line: Reverse-phase HPLC retention time as indicator of hydrophilicity/lipophilicity. The class given is physicochemical. As to conditions: chromatographic, COSMOSIL 5C18-AR-300 (4.6 x 150 mm), eluent A H2O/0.1% TFA, eluent B CH3CN/0.1% TFA, A:B = 80:20 to 20:80 in 25 min, detection 649 nm (Cy5/sulfoCy5) or 545 nm (Cy3/sulfoCy3), used as indicator of hydrophilicity/lipophilicity. The text has this:
General chemicals were of the best grade available, supplied by FUJIFILM Wako Pure Chemical Corporation (Osaka, Japan), Tokyo Chemical Industries Co., Ltd. (Tokyo, Japan), KANTO CHEMICAL Co., INC. (Tokyo, Japan), and Sigma-Aldrich Co. LLC (St. Louis, MO, USA), and were used without further purification. Cy3/Cy5-SE was purchased from Abcam (Cambridge, UK) and sulfoCy3/sulfoCy5-SE was purchased from AAT Bioquest (Sunnyvale, CA, USA). Peptide A was purchased from GlyTech, Inc. (Kyoto, Japan). MALDI-TOF mass spectra (MS) were measured with an Autoflex III TOF/TOF (Bruker Corporation, Billerica, MA, USA). Purification and high-performance liquid chromatography (HPLC) analyses were performed by HPLC systems (Shimadzu Corporation, Kyoto, Japan) with reverse-phase columns: the COSMOSIL 5C18-AR-300 (4.6 × 150 mm) (NACALAI TESQUE, INC., Kyoto, Japan) for analysis and the COSMOSIL 5C18-AR-300 (10 mm × 150 mm) (NACALAI TESQUE, INC.) for purification, using eluent A (H2O/0.1% trifluoroacetic acid (TFA)) and eluent B (CH3CN/0.1% TFA). Fluorescence images of living cells were taken on a BX41 upright fluorescent microscope (Olympus Corporation, Tokyo, Japan) equipped with a suitable filter set for Cy3/Cy5 dyes; it consisted of a 530–550 nm excitation filter and a 575–625 nm emission filter for the Cy3 dye, and a 608–648 nm excitation filter and a 652–732 nm emission filter for the Cy5 dye. […] Fluorescence images of animals and organs were taken with a FluorVivo Imaging System (Indec BioSystems, Santa Clara, CA, USA) equipped with a suitable filter set for a Cy5 dye; it consisted of a 600–640 nm excitation filter and a 665 nm long pass filter. […]
Cy3/Cy5-peptide A and sulfoCy3/sulfoCy5-peptide A were synthesized using commercially available Cy3/Cy5 succinimidyl ester (SE) and sulfoCy3/sulfoCy5 SE (Figure 1). […] Dye-SE and dye-peptide A were analyzed by HPLC under the same conditions; the retention times are shown in Table 1 because they are indicators of hydrophilicity/lipophilicity. […]
Figure S1. […] The compounds were analyzed by reverse-phase HPLC (eluent A: […]

As for `CCN1C(=CC=CC2=[N+](CCCCCC(=O)ON3C(=O)CCC3=O)c3ccc(S(=O)(=O)O)cc3C2(C)C)C(C)(C)c2cc(S(=O)(=O)[O-])ccc21` [sulfoCy3-SE], the “Retention Time” value came to 7.3 min.

Take `CCN1C(=CC=CC=CC2=[N+](CCCCCC(=O)ON3C(=O)CCC3=O)c3ccc(S(=O)(=O)O)cc3C2(C)C)C(C)(C)c2cc(S(=O)(=O)[O-])ccc21` [sulfoCy5-SE]: the “Retention Time” value is 9.3 min.

As to Cy5 succinimidyl ester [Cy5-SE], the “Retention Time” value stood at 22.6 min.
